Key:
SARS-CoV-2 pseudovirus [1] = assay: microbe, parasite or virus in culture; type: cell-based; details: Severe acute respiratory syndrome-related coronavirus, read-out: Inhibition rate (%), 5.0 µM, BHK-21-hACE2 cells
in vitro = details: hamster, Cell viability (%), BHK-21-hACE2 cells
SARS-CoV-2 pseudovirus [2] = assay: microbe, parasite or virus in culture; type: cell-based; details: Severe acute respiratory syndrome-related coronavirus, read-out: EC50, concentration resulting in 50% inhibition of virus replication
[3] = tested on: influenza virus A/Puerto Rico/8/34 (H1N1); type: cell-based; details: read-out: IC50, concentration resulting in 50% inhibition of virus replication; A/Puerto Rico/8/34 (H1N1) in MDCK cells

SMILES	inhibition at 5 µM (SARS-CoV-2 pseudovirus [1]) [%]	viability at 20 µM (in vitro) [%]	EC50 (SARS-CoV-2 pseudovirus [2]) [µM]	IC50 [3] [µM]
CCN(CC)Cc1cc(Nc2ccnc3cc(Cl)ccc23)ccc1O [Amodiaquine, amodiaquine]	92.4	107	3.17	–
CCC(CC)O[C@@H]1C=C(C(=O)O)C[C@H](N)[C@H]1NC(C)=O [Oseltamivir carboxylate]	–	–	–	6.4

Source: PMC9343747 (Phytochemistry Letters, 2022)
